Experimental data taken from patent US20260048046A1, “METHOD FOR IMPROVING GROWTH PERFORMANCE IN FEEDLOT CATTLE” (Elanco US Inc., priority 2022, published 2026).

Test system: beef steers
Test: Lubabegron removal period study: carcass measures
Assay type: in vivo, cattle
Conditions: for Calculated YG / Ribeye Area / HCW / Marbling / Dressing: Lubabegron 3.5 mg/kg DM fed 56 d; for HCW: steers; for Marbling: 500 = Small; for Dressing: final liveweight with 4% shrink
Protocol: This experiment was conducted to evaluate the effect of removing lubabegron from feed for increasing intervals prior to slaughter on growth performance of steers.
Seven hundred English x Continental cross steers (initial BW=531±8.8 kg) were used in a randomized complete block design with seven treatments. Pen served as the experimental unit. […] Animals were managed as two-time replications with each replication containing five blocks (7 pens/block and 10 steers/pen). All ten blocks started and ended within 48 hours of each other. Cattle were weighed by pen using a 45,000-kg capacity pen scale (Model WI-130, Avery Weigh-Tronix LLC, Fairmont, MN; 3.66 m×21.34 m). All treatments were on feed for 71 d with harvest scheduled for 72 d. Because of an impending weather event, cattle were weighed to obtain a final BW one d early. Cattle were placed on their respective ration for the additional d and then shipped to the harvest facility the following morning.
657 head were transported to a harvest facility approximately 495 km from the research facility. Animals were scored for animal mobility using the North American Meat Institute (NAMI, 2015) scoring scale described by Edwards-Callaway et al., (2017) while in lairage. […] Experienced staff collected an ear tag number, plant identification (ID), and carcass sequence and applied a unique carcass ID. Data collected on the kill floor included HCW, instances of excessive trim (>approximately 9 kg), and prevalence of liver abscess (Brown et al., 1975). Other carcass measures were obtained via instrument grading.
Continuous variables were analyzed using the Mixed procedure of SAS (version 9.4; SAS Institute, Cary, NC). Block served as a random effect whereas treatment was fixed. Initial body weight was used to describe the uniformity of cattle randomized to treatment and used as a covariate when appropriate. Data were calculated with deads and removals excluded. Linear and quadratic effects of lubabegron removal were conducted as were individual comparisons for duration of removal (i.e., 0 vs 2 d; 0 vs 4 d, 0 vs 6 d; 0 vs 8 d and 0 vs 16 d). Fisher's Exact test was evaluated on mobility scores 1 and 2. No test was conducted on mobility scores of 3 or 4 because no scores were reported. Simple means and standard deviation of the tissues collected for the 5 animals were calculated.

CC(C)(Cc1ccc(Oc2ncccc2C#N)cc1)NC[C@H](O)COc1ccccc1-c1cccs1 [LUB, 2-{4-[2-({(2S)-2-Hydroxy-3-[2-(2-thienyl)phenoxy]propyl}amino)-2-methylpropyl]phenoxy}nicotinonitrile]
Calculated YG (removal duration 0 d): 3.08
Ribeye Area (removal duration 0 d): 91.0 cm^2
HCW (removal duration 0 d): 409 kg
Marbling (removal duration 0 d): 482
Dressing (removal duration 0 d): 62.7%
Calculated YG (removal duration 2 d): 3.20
Ribeye Area (removal duration 2 d): 90.3 cm^2
HCW (removal duration 2 d): 411 kg
Marbling (removal duration 2 d): 491
Dressing (removal duration 2 d): 62.7%
Calculated YG (removal duration 4 d): 3.21
Ribeye Area (removal duration 4 d): 90.3 cm^2
HCW (removal duration 4 d): 413 kg
Marbling (removal duration 4 d): 488
Dressing (removal duration 4 d): 62.8%
Calculated YG (removal duration 6 d): 3.06
Ribeye Area (removal duration 6 d): 91.6 cm^2
HCW (removal duration 6 d): 410 kg
Marbling (removal duration 6 d): 483
Dressing (removal duration 6 d): 62.9%
Calculated YG (removal duration 8 d): 3.14
Ribeye Area (removal duration 8 d): 90.3 cm^2
HCW (removal duration 8 d): 413 kg
Marbling (removal duration 8 d): 483
Dressing (removal duration 8 d): 63.0%
Calculated YG (removal duration 16 d): 3.18
Ribeye Area (removal duration 16 d): 89.0 cm^2
Marbling (removal duration 16 d): 484
Dressing (removal duration 16 d): 62.6%
Effect of removal duration on any measured carcass parameter (lubabegron 3.5 mg/kg DM, removal 0 to 16 d, P>0.05): no effect
Calculated yield grade improvement vs non-treated group (lubabegron fed for 56 d with a 0 d removal): 10.5%
Effects on BW and HCW of duration of lubabegron removal (removal up to 16 d): not affected
